Test results taken from patent publication US20220242846A1, “ISOINDOLINONE COMPOUNDS” (Monte Rosa Therapeutics AG, priority 2019, published 2022).
Read-outs that look alike come from different tables or passages of the source.

Legend:
[1] = test system: Human mammary epithelial cells (HMEC) engineered to express c-myc tagged with EGFP; test: 3D spheroid assay, myc-HMEC (CellTiterGlo3D viability); format: cell-based
Description: (§1) 3D Spheroid Experiments—HMEC
(§2) Human mammary epithelial cells (HMEC) were engineered to express either c-myc tagged with EGFP or EGFP alone (non myc) (analogous but distinct from Kessler J D et al, Science. 2012 Jan. 20; 335(6066):348-53. doi: 10.1126/science.1212728; Hsu T Y et al, Nature. 2015 Sep. 17; 525(7569):384-8. doi: 10.1038/nature14985). The engineered cells were seeded at 1000 (myc) or 4000 (non myc) cells/well in a 384 ultra-low attachment plate in a total volume of 40 µL, HMEC cell culture media (DMEM/F12+10% HI-FBS+15 mM HEPES+0.5 ug/ml Hydrocortisone+10 ug/ml Insulin+20 ng/ml EGF). Plates were spun at 1200 rpm for 5 minutes at room temperature to ensure that cells have gathered in the middle of the well and incubated at 37° C. for 48 hrs before firing with compounds. On Day 2 (48 h post seeding) cells were imaged (brightfield and EGFP fluorescence) using the Celigo imaging cytometer prior to firing compounds. For primary screens, compounds were added at three concentrations (1.25, 10 and 30 uM) in a volume of 120 nL using the ECHO acoustic dispenser and spun at 2000 rpm for 2 minutes at room temperature before incubating at 37° C. for 5 days. […] On Day 7, prior to measuring cell viability using CellTiterGlo3D, cells were imaged (brightfield and EGFP fluorescence) on the Celigo imaging cytometer. The CellTiterGlo3D reagent is added at 30uL/well and incubated at room temperature for 30mins After 30mins of incubation, luminescence readings were recorded using the Perkin Elmer EnVision reader.

GSPT1 = GSPT1 (Homo sapiens, UniProt P15170+Q96SW2); test: Immunofluorescence assay for GSPT1 degradation in CAL-51 cells; format: cell-based; parameters: CAL-51 cells were purchased from DSMZ (cat. Number ACC302); endogenous in cells; host or cells: CAL-51 (DSMZ ACC302); details: compound treatment 6 hours
Procedure, shortened: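 CAL-51 cells on fibronectin-coated plates treated 6 h with compound (30 μM to 0.1 nM); fixed, stained with anti-GSPT1/Alexa-488, phalloidin and DAPI, imaged by high-content microscopy. Mean GSPT1 intensity per cell normalized to controls; DC50 by non-linear regression.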

[2] = biological target: T1, Full length wild-type cereblon CRBN (Homo sapiens, UniProt Q96SW2); test: Fluorescence polarization (FP) assay indicating cereblon binding; details: CRBN 80.0 nM, fluorescent probe 5 nM, FP measured after 12 hours; read-out: rFP IC50
T1 construct: Full length wild-type cereblon CRBN (80.0 nM, 10 μL) was incubated in assay buffer
Procedure, shortened: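 Full-length wild-type human CRBN (80.0 nM) preincubated 30 min at room temperature with compound (12-point curve, 300-0.937 or 3000-9.3 nM) in HEPES pH 8.0, NaCl, TCEP, Tween 20. Thalidomide-based Cy5-type probe then added at 5 nM final; FP read after 12 h (ex 590, em 675 nm), normalized to DMSO, IC50 derived.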

[3] = test system: Human mammary epithelial cells (HMEC) engineered to express EGFP alone (non myc); test: 3D spheroid assay, non myc-HMEC (CellTiterGlo3D viability); format: cell-based; details: 120 h, 3D spheroids, 5 days with compound, read-out: Code: EC50 value in the non myc-HMEC assay
Description: as §1, §2

[4] = Homo sapiens, HMEC, 120 h, 3D spheroids, 5 days with compound, read-out: Code: EC50 value in the myc-HMEC assay
[5] = read-out: Code: activity for GSPT1 degradation (DC50)
[6] = myc-HMEC 3D spheroids (compounds with code D and E), 5 days, read-out: EC50
[7] = Homo sapiens, HMEC, 120 h, myc-HMEC 3D spheroids (compounds with code D and E), 5 days, read-out: EC50
[8] = GSPT1 degradation, read-out: DC50

T1 sequence (Q96SW2 whole entry): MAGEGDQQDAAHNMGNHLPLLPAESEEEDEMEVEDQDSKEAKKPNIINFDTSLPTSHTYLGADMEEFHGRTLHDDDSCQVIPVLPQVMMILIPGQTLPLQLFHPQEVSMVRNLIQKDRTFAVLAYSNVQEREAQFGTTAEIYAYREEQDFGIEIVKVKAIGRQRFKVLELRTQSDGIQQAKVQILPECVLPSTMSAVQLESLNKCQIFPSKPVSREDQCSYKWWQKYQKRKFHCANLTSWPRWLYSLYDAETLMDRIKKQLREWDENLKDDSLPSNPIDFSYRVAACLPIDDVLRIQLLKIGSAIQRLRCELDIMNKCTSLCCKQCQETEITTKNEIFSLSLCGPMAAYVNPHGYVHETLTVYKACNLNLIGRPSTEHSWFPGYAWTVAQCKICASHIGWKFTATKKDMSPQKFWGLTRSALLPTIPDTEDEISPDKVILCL
GSPT1, sequence (P15170 whole entry): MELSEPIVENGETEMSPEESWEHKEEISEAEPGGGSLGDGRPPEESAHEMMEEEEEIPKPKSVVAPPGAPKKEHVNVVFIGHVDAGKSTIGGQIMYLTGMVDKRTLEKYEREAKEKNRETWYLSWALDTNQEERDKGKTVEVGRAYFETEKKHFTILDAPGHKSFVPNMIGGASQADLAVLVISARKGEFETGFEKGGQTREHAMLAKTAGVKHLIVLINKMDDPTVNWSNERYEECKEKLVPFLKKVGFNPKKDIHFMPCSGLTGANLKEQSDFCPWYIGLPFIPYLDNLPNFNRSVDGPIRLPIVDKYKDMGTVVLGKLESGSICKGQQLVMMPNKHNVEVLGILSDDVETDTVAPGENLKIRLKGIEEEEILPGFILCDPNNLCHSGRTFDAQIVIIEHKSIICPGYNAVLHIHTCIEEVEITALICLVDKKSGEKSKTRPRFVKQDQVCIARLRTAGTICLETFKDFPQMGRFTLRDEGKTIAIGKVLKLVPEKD
GSPT1, sequence (Q96SW2 whole entry): as the sequence (Q96SW2 whole entry) above
GSPT1, sequence (Q16531 2-1140 partner limits assumed): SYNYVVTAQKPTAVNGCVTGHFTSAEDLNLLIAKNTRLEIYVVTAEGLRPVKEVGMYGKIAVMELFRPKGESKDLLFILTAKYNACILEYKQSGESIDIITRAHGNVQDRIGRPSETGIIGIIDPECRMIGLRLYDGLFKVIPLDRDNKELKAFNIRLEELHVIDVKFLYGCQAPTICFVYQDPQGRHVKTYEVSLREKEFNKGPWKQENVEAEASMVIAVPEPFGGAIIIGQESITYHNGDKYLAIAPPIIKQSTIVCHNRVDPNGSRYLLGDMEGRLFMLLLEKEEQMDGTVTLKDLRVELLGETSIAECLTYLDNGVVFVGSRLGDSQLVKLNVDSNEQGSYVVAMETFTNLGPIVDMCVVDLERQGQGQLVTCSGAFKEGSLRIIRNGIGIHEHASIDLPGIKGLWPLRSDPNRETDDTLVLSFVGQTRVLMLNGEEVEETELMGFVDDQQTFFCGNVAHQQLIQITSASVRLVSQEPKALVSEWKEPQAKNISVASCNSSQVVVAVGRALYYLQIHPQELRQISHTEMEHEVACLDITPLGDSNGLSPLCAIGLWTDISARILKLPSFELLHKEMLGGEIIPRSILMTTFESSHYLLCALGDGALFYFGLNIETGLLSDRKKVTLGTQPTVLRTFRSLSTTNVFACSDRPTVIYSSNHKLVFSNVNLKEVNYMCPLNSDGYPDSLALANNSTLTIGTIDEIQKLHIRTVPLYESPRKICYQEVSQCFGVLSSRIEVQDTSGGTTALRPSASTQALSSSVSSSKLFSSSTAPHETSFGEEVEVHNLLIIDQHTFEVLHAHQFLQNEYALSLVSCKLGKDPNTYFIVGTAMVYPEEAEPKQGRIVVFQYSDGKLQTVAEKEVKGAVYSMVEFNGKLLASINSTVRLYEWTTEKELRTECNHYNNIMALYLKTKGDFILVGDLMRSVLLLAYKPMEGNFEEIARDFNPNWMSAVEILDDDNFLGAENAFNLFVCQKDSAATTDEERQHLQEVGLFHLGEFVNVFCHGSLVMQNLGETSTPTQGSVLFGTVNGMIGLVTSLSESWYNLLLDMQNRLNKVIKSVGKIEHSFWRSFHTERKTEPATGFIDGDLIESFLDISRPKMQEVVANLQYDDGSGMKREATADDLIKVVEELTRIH

Structure (SMILES)	DC50 (GSPT1; [5]) [nM]	IC50 [2] [nM]	DC50 (GSPT1; [8]) [nM]	EC50 [1, 4] [nM]	EC50 [3] [nM]	EC50 [1, 6] [nM]	EC50 [1, 7] [nM]
Cc1ccc(NC(=O)NCc2ccc3c(c2)C(=O)N(C2CCC(=O)NC2=O)C3)cc1 (stereo not drawn) [Compound 21]	> 300	622	–	> 2000	> 10000	–	–
CCCNC(=O)NCc1ccc2c(c1)C(=O)N(C1CCC(=O)NC1=O)C2 (stereo not drawn) [Compound 14]	> 300	1420	–	> 2000	> 10000	–	–
O=C1CCC(N2Cc3ccc(CNC(=O)Nc4ccccc4-c4ccccc4)cc3C2=O)C(=O)N1 (stereo not drawn) [Compound 66]	> 300	449	–	> 2000	> 10000	–	–
COc1cccc(CNC(=O)NCc2ccc3c(c2)C(=O)N(C2CCC(=O)NC2=O)C3)c1 (stereo not drawn) [Compound 53]	> 300	364	–	> 2000	> 10000	–	–
O=C1CCC(N2Cc3ccc(CNC(=O)NCCCc4ccccc4)cc3C2=O)C(=O)N1 (stereo not drawn) [Compound 70]	> 300	253	–	> 2000	> 10000	–	–
O=C1CCC(N2Cc3ccc(CNC(=O)Nc4cccc(Cl)c4Cl)cc3C2=O)C(=O)N1 (stereo not drawn) [Compound 50]	> 300	479	–	> 2000	> 10000	–	–
COc1ccc(C)cc1NC(=O)NCc1ccc2c(c1)C(=O)N(C1CCC(=O)NC1=O)C2 (stereo not drawn) [Compound 17]	> 300	514	–	> 2000	> 10000	–	–
O=C1CCC(N2Cc3ccc(CNC(=O)Nc4ccc(Cl)cc4Cl)cc3C2=O)C(=O)N1 (stereo not drawn) [Compound 45]	> 300	472	–	> 2000	> 10000	–	–
O=C1CCC(N2Cc3ccc(CNC(=O)NCC4CC4)cc3C2=O)C(=O)N1 (stereo not drawn) [Compound 26]	> 300	907	–	> 2000	> 10000	–	–
O=C1CCC(N2Cc3ccc(CNC(=O)NC4CCCC4)cc3C2=O)C(=O)N1 (stereo not drawn) [Compound 28]	> 300	814	–	> 2000	> 10000	–	–
CCc1ccccc1NC(=O)NCc1ccc2c(c1)C(=O)N(C1CCC(=O)NC1=O)C2 (stereo not drawn) [Compound 36]	> 300	546	–	> 2000	> 10000	–	–

Further lines, with some results ahead:

DC50 (GSPT1; [5]) [nM]	IC50 [2] [nM]	DC50 (GSPT1; [8]) [nM]	Structure (SMILES)	EC50 [1, 4] [nM]	EC50 [3] [nM]	EC50 [1, 6] [nM]	EC50 [1, 7] [nM]
≤ 100	591	–	O=C1CCC(N2Cc3ccc(CNC(=O)Nc4cccc(Cl)c4F)cc3C2=O)C(=O)N1 (stereo not drawn) [Compound 33]	≤ 400	> 10000	250	–
100 to 300	589	253	O=C1CCC(N2Cc3ccc(CNC(=O)Nc4ccc(F)c(Cl)c4)cc3C2=O)C(=O)N1 (stereo not drawn) [Compound 42]	400 to 2000	> 10000	1720	≤ 2000
≤ 100	1400	–	O=C1CCC(N2Cc3ccc(CNC(=O)Nc4ccc(Cl)c(Cl)c4)cc3C2=O)C(=O)N1 (stereo not drawn) [Compound 46]	400 to 2000	> 10000	469	–
100 to 300	373	–	COc1ccc(NC(=O)NCc2ccc3c(c2)C(=O)N(C2CCC(=O)NC2=O)C3)cc1Cl (stereo not drawn) [Compound 59]	400 to 2000	> 10000	589	–
≤ 100	381	–	Cc1cc(NC(=O)NCc2ccc3c(c2)C(=O)N(C2CCC(=O)NC2=O)C3)ccc1Cl (stereo not drawn) [Compound 61]	≤ 400	> 10000	92	–
100 to 300	590	172	O=C1CCC(N2Cc3ccc(CNC(=O)Nc4ccc(C(F)(F)F)cc4)cc3C2=O)C(=O)N1 (stereo not drawn) [Compound 41]	400 to 2000	> 10000	1100	≤ 2000
